Measurements reported in ChEMBL document CHEMBL1201862, “PubChem BioAssay data set” (2004).
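In this assay, cells in 96-well plates receive the compound at five concentrations for 48 hours. Endpoints are linearly interpolated between the surrounding concentrations. The concentration for 50% growth inhibition is given as GI50.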 The source made the active and inactive calls. No stated cut-off is given here; in the data, active = GI50 up to about 1.1 µM and inactive = higher. Residues, ends and D or L forms follow the SMILES beside them. Groups on a side chain read outwards from the residue. *: point of attachment. Cbz = O=C(OCc1ccccc1)*; Boc = CC(C)(C)OC(=O)*

Assays:
Assay in all cases: NCI tumour cell line growth inhibition, 48 h
SR = tested on: SR
SF-295 = tested on: SF-295
SK-MEL-28 = tested on: SK-MEL-28
SN12C = tested on: SN12C
HCC 2998 = tested on: HCC 2998
PC-3 = tested on: PC-3
MDA-MB-231 = tested on: MDA-MB-231
ACHN = tested on: ACHN
UO-31 = tested on: UO-31
A549 = tested on: A549
SW-620 = tested on: SW-620
K562 = tested on: K562
MCF7 = tested on: MCF7
KM12 = tested on: KM12
NCI-H522 = tested on: NCI-H522
UACC-257 = tested on: UACC-257
TK-10 = tested on: TK-10
MDA-MB-435 = tested on: MDA-MB-435
M14 = tested on: M14
SK-OV-3 = tested on: SK-OV-3

Measured: GI50

O=C(Nc1nc(C23CC4CC(CC(C4)C2)C3)cs1)c1c(O)c2ccccc2[nH]c1=O
inactive: SR > 100 µM | SF-295 > 100 µM | SK-MEL-28 > 100 µM | SN12C > 100 µM | HCC 2998 > 100 µM | PC-3 > 100 µM | MDA-MB-231 78.9 µM | ACHN > 100 µM | UO-31 > 100 µM | A549 > 100 µM | SW-620 > 100 µM | K562 > 100 µM | MCF7 > 100 µM | KM12 > 100 µM | NCI-H522 > 100 µM | UACC-257 > 100 µM | TK-10 > 100 µM | MDA-MB-435 > 100 µM

N#C/C(=C\c1cn(Cc2ccccc2)c2ccccc12)c1nn(-c2ccccc2)c(N)c1C#N
inactive: SR 24.7 µM | SF-295 11.1 µM | SK-MEL-28 27.7 µM | SN12C 15.3 µM | PC-3 8.22 µM | MDA-MB-231 4.13 µM | ACHN 18.7 µM | UO-31 12.9 µM | A549 11.2 µM | SW-620 14.8 µM | K562 24.3 µM | MCF7 28.2 µM | M14 20.4 µM | SK-OV-3 15.2 µM | KM12 26.1 µM | NCI-H522 13.2 µM | UACC-257 20.1 µM | TK-10 15.8 µM | MDA-MB-435 20.6 µM

COC1(OC)CC(CO)(CNc2nc(N)nc(Cl)c2/C=N\O)C1
inactive: SR 13.4 µM | SF-295 33.3 µM | SK-MEL-28 48.9 µM | SN12C 87.7 µM | HCC 2998 > 100 µM | PC-3 55.5 µM | MDA-MB-231 72.9 µM | ACHN 24.6 µM | UO-31 39.2 µM | A549 59.7 µM | SW-620 > 100 µM | K562 17.7 µM | MCF7 24.1 µM | KM12 7.05 µM | NCI-H522 6.67 µM | UACC-257 27.7 µM | TK-10 25.9 µM | MDA-MB-435 31.5 µM

NC(=O)N/N=C1\CCCCc2ccccc21
inactive: SR > 10 µM | SN12C > 10 µM | HCC 2998 > 10 µM | PC-3 > 10 µM | MDA-MB-231 > 10 µM | ACHN > 10 µM | UO-31 > 10 µM | A549 > 10 µM | SW-620 > 10 µM | K562 > 10 µM | MCF7 > 10 µM | M14 > 10 µM | KM12 > 10 µM | NCI-H522 > 10 µM | UACC-257 > 10 µM | TK-10 > 10 µM | MDA-MB-435 > 10 µM

CS(=O)(=O)CCC1CCC(=O)O1 (stereo not given)
inactive: SR 85.1 µM | SF-295 92.9 µM | SK-MEL-28 > 100 µM | SN12C 68.1 µM | HCC 2998 > 100 µM | PC-3 > 100 µM | MDA-MB-231 > 100 µM | ACHN 31.5 µM | UO-31 > 100 µM | A549 43.6 µM | SW-620 > 100 µM | K562 > 100 µM | MCF7 58.9 µM | M14 > 100 µM | KM12 > 100 µM | NCI-H522 31.2 µM | UACC-257 > 100 µM | TK-10 > 100 µM | MDA-MB-435 > 100 µM

COC(=O)c1cccc(COc2ccc([N+](=O)[O-])cc2Cl)c1
inactive: SR > 100 µM | SF-295 > 100 µM | SK-MEL-28 > 100 µM | SN12C 49 µM | PC-3 > 100 µM | MDA-MB-231 82.8 µM | ACHN 53.3 µM | UO-31 98.9 µM | A549 42.5 µM | SW-620 > 100 µM | K562 72.4 µM | MCF7 > 100 µM | M14 > 100 µM | SK-OV-3 > 100 µM | KM12 > 100 µM | NCI-H522 63.7 µM | UACC-257 > 100 µM | TK-10 > 100 µM | MDA-MB-435 > 100 µM

CC(C)(C)OC(=O)NC(CCCCNC(=O)CNC(=O)OCc1ccccc1)C(=O)NC(CCCCNC(=O)CNC(=O)OCc1ccccc1)C(=O)NC(CCCCNC(=O)CNC(=O)OCc1ccccc1)C(=O)NC(CCCCNC(=O)CNC(=O)OCc1ccccc1)C(=O)O (stereo not given) (Boc-K([Gly-Cbz])K([Gly-Cbz])K([Gly-Cbz])K([Gly-Cbz])-OH; configuration not given here)
inactive: SR > 100 µM | SK-MEL-28 > 100 µM | SN12C > 100 µM | HCC 2998 > 100 µM | PC-3 > 100 µM | MDA-MB-231 > 100 µM | ACHN > 100 µM | UO-31 > 100 µM | A549 > 100 µM | SW-620 > 100 µM | K562 > 100 µM | MCF7 > 100 µM | M14 > 100 µM | NCI-H522 > 100 µM | UACC-257 > 100 µM | TK-10 > 100 µM | MDA-MB-435 > 10 µM

COc1ccc(N2C(=O)/C(=C\c3cccc(Oc4ccccc4)c3)S(=O)(=O)C2c2ccccc2)cc1 (stereo not given)
inactive: SR 3.7 µM | SK-MEL-28 > 100 µM | SN12C 66.4 µM | HCC 2998 > 100 µM | PC-3 56 µM | MDA-MB-231 85.1 µM | ACHN 98.9 µM | UO-31 53.6 µM | A549 31.5 µM | SW-620 60.8 µM | K562 16.4 µM | MCF7 26 µM | M14 38.8 µM | KM12 22.5 µM | NCI-H522 12.3 µM | UACC-257 26.1 µM | TK-10 37.1 µM | MDA-MB-435 19.8 µM
